In patent publication US11866430B2, “Naphthyridinone compounds useful as T cell activators” (priority 2018, dated 2024):

What was measured:
human DGKζ [1] = molecular target: T1, human DGKζ (Homo sapiens (Human), UniProt Q13574); test: DGKζ LIPGLO assay (extruded liposome substrate); type: biochemical
Procedure, shortened: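 Sf9-derived DGKζ was premixed 10 min with PC/DAG/PS liposomes (100 nm extruded) in MOPS pH 7.5 buffer containing NaCl, MgCl2, CaCl2 and DTT.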

human DGKα = human DGKα (Homo sapiens (Human), UniProt P23743); test: biochemical; conditions: detergent/lipid micelle substrate; read-out: DGKα IC50
Procedure, shortened: (§1)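 Enzymes were baculovirus/Sf9 full-length human DGKα or DGKζ with His tag. The substrate was PS/DAG in octyl glucoside micelles, in MOPS pH 7.5 buffer with NaCl, MgCl2, CaCl2 and DTT.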

human DGKζ [2] = molecular target: T1, human DGKζ; test: DGKζ assay (detergent/lipid micelle substrate); type: biochemical
Procedure, shortened: as §1

[3] = extruded liposome substrate, read-out: DGKζ LIPGLO IC50
[4] = detergent/lipid micelle substrate, read-out: DGKζ IC50
[5] = DGKζ LIPGLO IC50, extruded liposome substrate
[6] = DGKζ IC50, detergent/lipid micelle substrate

T1 sequence (Q13574 other isoform, or with tags, fused parts or gaps): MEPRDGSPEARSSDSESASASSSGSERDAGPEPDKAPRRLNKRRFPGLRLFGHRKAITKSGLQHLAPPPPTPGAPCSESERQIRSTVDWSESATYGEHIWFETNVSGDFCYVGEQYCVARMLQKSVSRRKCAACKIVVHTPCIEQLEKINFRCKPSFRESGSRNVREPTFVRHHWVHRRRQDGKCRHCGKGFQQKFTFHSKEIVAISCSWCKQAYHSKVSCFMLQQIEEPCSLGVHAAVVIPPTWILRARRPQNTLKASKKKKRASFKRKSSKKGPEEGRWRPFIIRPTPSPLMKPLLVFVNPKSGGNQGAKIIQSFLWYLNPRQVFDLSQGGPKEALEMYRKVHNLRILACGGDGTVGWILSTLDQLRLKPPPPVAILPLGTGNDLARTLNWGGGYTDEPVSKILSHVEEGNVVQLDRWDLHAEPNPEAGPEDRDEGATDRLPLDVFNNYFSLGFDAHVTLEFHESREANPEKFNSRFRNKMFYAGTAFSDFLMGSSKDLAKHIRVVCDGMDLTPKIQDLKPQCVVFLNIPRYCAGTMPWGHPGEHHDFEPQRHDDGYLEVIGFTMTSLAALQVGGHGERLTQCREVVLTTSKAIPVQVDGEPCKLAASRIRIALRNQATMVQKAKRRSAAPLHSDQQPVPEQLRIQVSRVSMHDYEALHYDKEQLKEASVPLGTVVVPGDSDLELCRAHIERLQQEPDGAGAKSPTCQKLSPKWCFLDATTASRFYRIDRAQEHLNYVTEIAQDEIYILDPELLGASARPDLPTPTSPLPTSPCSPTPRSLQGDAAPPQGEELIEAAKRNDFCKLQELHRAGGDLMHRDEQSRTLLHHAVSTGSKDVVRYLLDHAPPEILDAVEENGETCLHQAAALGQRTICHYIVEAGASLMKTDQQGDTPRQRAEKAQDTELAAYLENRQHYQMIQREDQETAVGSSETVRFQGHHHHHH
Chain of human DGKα (P23743 other isoform, or with tags, fused parts or gaps): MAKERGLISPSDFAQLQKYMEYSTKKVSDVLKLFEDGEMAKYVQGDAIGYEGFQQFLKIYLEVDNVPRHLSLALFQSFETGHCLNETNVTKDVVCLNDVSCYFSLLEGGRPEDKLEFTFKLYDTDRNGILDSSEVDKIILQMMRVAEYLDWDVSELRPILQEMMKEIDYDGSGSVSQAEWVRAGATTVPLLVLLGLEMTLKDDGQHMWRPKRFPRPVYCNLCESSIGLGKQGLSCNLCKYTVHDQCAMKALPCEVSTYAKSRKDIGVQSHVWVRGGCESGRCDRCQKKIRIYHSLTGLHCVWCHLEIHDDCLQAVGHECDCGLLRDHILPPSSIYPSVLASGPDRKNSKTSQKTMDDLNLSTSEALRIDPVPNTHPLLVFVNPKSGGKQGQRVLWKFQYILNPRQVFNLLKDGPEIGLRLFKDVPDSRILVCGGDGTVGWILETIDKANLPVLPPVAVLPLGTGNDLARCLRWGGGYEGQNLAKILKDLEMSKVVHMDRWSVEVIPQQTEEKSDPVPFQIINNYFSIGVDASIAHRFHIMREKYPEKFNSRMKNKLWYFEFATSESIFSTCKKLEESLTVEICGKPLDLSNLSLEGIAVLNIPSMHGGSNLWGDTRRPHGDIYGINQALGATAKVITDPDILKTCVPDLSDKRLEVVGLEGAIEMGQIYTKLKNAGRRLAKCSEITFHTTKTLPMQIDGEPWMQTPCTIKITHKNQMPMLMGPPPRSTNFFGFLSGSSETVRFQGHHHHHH

SMILES | IC50 (human DGKζ [1]; [3]) | IC50 (human DGKα) | IC50 (human DGKζ [2]; [4]) | IC50 (human DGKζ [1]; [5]) | IC50 (human DGKζ [2]; [6])
COc1ccc2c(n1)c(N1CCN(C(c3ccc(F)cc3)c3ccc(F)cc3OC)CC1)c(C#N)c(=O)n2C (racemic) [Example 412, 4-{4-[(4-fluoro-2-methoxyphenyl)(4-fluorophenyl)methyl]piperazin-1-yl}-6-methoxy-1-methyl-2-oxo-1,2-dihydro-1,5-naphthyridine-3-carbonitrile] | 0.6 µM | – | – | – | –
COc1ccccc1C(c1ccc(F)cc1)N1CCN(c2c(C#N)c(=O)n(C)c3ccc(Br)nc23)CC1 (single isomer, unassigned) [Example 13, 6-bromo-4-{4-[(4-fluorophenyl)(2-methoxyphenyl)methyl]piperazin-1-yl}-1-methyl-2-oxo-1,2-dihydro-1,5-naphthyridine-3-carbonitrile] | – | 9.5 µM | > 240 µM | – | –
COc1cc(F)ccc1C(c1ccc(F)cc1)N1CCN(c2c(C#N)c(=O)n(C)c3ccc(Br)nc23)CC1 (single isomer, unassigned) [Example 17, 6-bromo-4-{4-[(4-fluoro-2-methoxyphenyl)(4-fluorophenyl)methyl]piperazin-1-yl}-1-methyl-2-oxo-1,2-dihydro-1,5-naphthyridine-3-carbonitrile] | 9.4 µM | 0.93 µM | 180 µM | – | –
CC(c1ccc(F)cc1)N1CCN(c2c([N+](=O)[O-])c(=O)n(C)c3ccc(C#N)nc23)CC1 (single isomer, unassigned) [Example 44, 8-(4-(1-(4-fluorophenyl)ethyl)piperazin-1-yl)-5-methyl-7-nitro-6-oxo-5,6-dihydro-1,5-naphthyridine-2-carbonitrile] | 1.3 µM | 0.23 µM | 8.9 µM | – | –
C#CCn1c(=O)c([N+](=O)[O-])c(N2CCN(C(c3ccc(F)cc3)c3ccc(F)cc3O)CC2)c2nc(C#N)ccc21 (single isomer, unassigned) [Example 121, 8-(4-((4-fluoro-2-hydroxyphenyl)(4-fluorophenyl)methyl)piperazin-1-yl)-7-nitro-6-oxo-5-(prop-2-yn-1-yl)-5,6-dihydro-1,5-naphthyridine-2-carbonitrile] | 0.055 µM | 1.9 µM | 0.18 µM | – | –
COc1cc(F)ccc1C(c1ccc(F)cc1)N1CCN(c2c([N+](=O)[O-])c(=O)n(C)c3ccc(C#N)nc23)CC1 (single isomer, unassigned) [Example 124, 8-(4-((4-fluoro-2-methoxyphenyl)(4-fluorophenyl)methyl)piperazin-1-yl)-5-methyl-7-nitro-6-oxo-5,6-dihydro-1,5-naphthyridine-2-carbonitrile] | – | 0.75 µM | – | 0.16 µM | 0.9 µM
C#CCn1c(=O)c([N+](=O)[O-])c(N2CCN(C(C)c3ccc(F)cc3)CC2)c2nc(C#N)ccc21 (single isomer, unassigned) [Example 136, 8-(4-(1-(4-fluorophenyl)ethyl)piperazin-1-yl)-7-nitro-6-oxo-5-(prop-2-yn-1-yl)-5,6-dihydro-1,5-naphthyridine-2-carbonitrile] | – | 0.21 µM | – | 0.21 µM | 0.87 µM
C#CCn1c(=O)c([N+](=O)[O-])c(N2CCN(C(C)c3ccc(F)cc3)CC2)c2nc(C#N)ccc21 (single isomer, unassigned) [Example 137, 8-(4-(1-(4-fluorophenyl)ethyl)piperazin-1-yl)-7-nitro-6-oxo-5-(prop-2-yn-1-yl)-5,6-dihydro-1,5-naphthyridine-2-carbonitrile] | – | 0.28 µM | – | 0.85 µM | 4.8 µM
C#CCn1c(=O)c([N+](=O)[O-])c(N2CCN(C(CC)c3ccc(F)cc3)CC2)c2nc(C#N)ccc21 (single isomer, unassigned) [Example 141, 8-{4-[1-(4-fluorophenyl)propyl]piperazin-1-yl}-7-nitro-6-oxo-5-(prop-2-yn-1-yl)-5,6-dihydro-1,5-naphthyridine-2-carbonitrile] | 1.4 µM | 0.27 µM | 8.9 µM | – | –
C#CCn1c(=O)c([N+](=O)[O-])c(N2CCN(C(c3ccc(F)cc3)C3CC3)CC2)c2nc(C#N)ccc21 (single isomer, unassigned) [Example 143, 8-(4-(cyclopropyl(4-fluorophenyl)methyl)piperazin-1-yl)-7-nitro-6-oxo-5-(prop-2-yn-1-yl)-5,6-dihydro-1,5-naphthyridine-2-carbonitrile] | 1.1 µM | 1.3 µM | 4.2 µM | – | –
CC(C)C(c1ccc(F)cc1)N1CCN(c2c(C#N)c(=O)n(C)c3ccc(Cl)nc23)CC1 (single isomer, unassigned) [Example 315, 6-chloro-4-{4-[1-(4-fluorophenyl)-2-methylpropyl]piperazin-1-yl}-methyl-2-oxo-1,2-dihydro-1,5-naphthyridine-3-carbonitrile] | 1.6 µM | – | > 240 µM | – | –
Cn1c(=O)c(C#N)c(N2CCN(C(CC(C)(C)C)c3ccc(F)cc3)CC2)c2nc(Cl)ccc21 (single isomer, unassigned) [Example 377, 6-chloro-4-{4-[1-(4-fluorophenyl)-3,3-dimethylbutyl]piperazin-1-yl}-1-methyl-2-oxo-1,2-dihydro-1,5-naphthyridine-3-carbonitrile] | 130 µM | – | – | – | –
Cn1c(=O)c(C#N)c(N2CCN(C(CC(C)(C)C)c3ccc(F)cc3)CC2)c2nc(Cl)ccc21 (single isomer, unassigned) [Example 378, 6-chloro-4-{4-[1-(4-fluorophenyl)-3,3-dimethylbutyl]piperazin-1-yl}-1-methyl-2-oxo-1,2-dihydro-1,5-naphthyridine-3-carbonitrile] | > 240 µM | – | – | – | –
Cn1c(=O)c(C#N)c(N2CCN(C(c3ccc(F)cc3)C3CCC3)CC2)c2nc(Cl)ccc21 (single isomer, unassigned) [Example 382, 6-chloro-4-{4-[cyclobutyl(4-fluorophenyl)methyl]piperazin-1-yl}-1-methyl-2-oxo-1,2-dihydro-1,5-naphthyridine-3-carbonitrile] | > 240 µM | – | – | – | –
Cn1c(=O)c(C#N)c(N2CCN(C(c3ccc(F)cc3)C3CCC3)CC2)c2nc(Cl)ccc21 (single isomer, unassigned) [Example 383, 6-chloro-4-{4-[cyclobutyl(4-fluorophenyl)methyl]piperazin-1-yl}-1-methyl-2-oxo-1,2-dihydro-1,5-naphthyridine-3-carbonitrile] | > 2.4 µM | – | – | – | –
CC(c1ccc(F)cc1)N1CCN(c2c(C#N)c(=O)n(C)c3ccc(Cl)nc23)CC1 (single isomer, unassigned) [Example 387, 6-chloro-4-{4-[1-(4-fluorophenyl)ethyl]piperazin-1-yl}-1-methyl-2-oxo-1,2-dihydro-1,5-naphthyridine-3-carbonitrile] | 1.6 µM | – | > 240 µM | – | –
CC(c1ccc(F)cc1)N1CCN(c2c(C#N)c(=O)n(C)c3ccc(Cl)nc23)CC1 (single isomer, unassigned) [Example 388, 6-chloro-4-{4-[1-(4-fluorophenyl)ethyl]piperazin-1-yl}-1-methyl-2-oxo-1,2-dihydro-1,5-naphthyridine-3-carbonitrile] | 130 µM | 0.053 µM | > 240 µM | – | –
COc1cc(F)ccc1C(c1ccc(F)cc1)N1CCN(c2c(C#N)c(=O)n(C)c3ccc(C#N)nc23)CC1 (single isomer, unassigned) [Example 406, 8-{4-[(4-fluoro-2-methoxyphenyl)(4-fluorophenyl)methyl]piperazin-1-yl}-5-methy-6-oxo-5,6-dihydro-L5-naphthyridine-2,7-dicarbonitrile] | 3.1 µM | – | – | – | –
COc1cc(F)ccc1C(c1ccc(F)cc1)N1CCN(c2c(C#N)c(=O)n(C)c3ccc(C#N)nc23)CC1 (single isomer, unassigned) [Example 407, 8-{4-[(4-fluoro-2-methoxyphenyl)(4-fluorophenyl)methyl]piperazin-1-yl}-5-methy-6-oxo-5,6-dihydro-L5-naphthyridine-2,7-dicarbonitrile] | 0.45 µM | – | – | – | –
Cn1c(=O)c(C#N)c(N2CCN(C(c3ccc(F)cc3)c3ccccc3O)CC2)c2nc(C#N)ccc21 (centres unmarked) [Example 11, 8-{4-[(4-fluorophenyl)(2-hydroxyphenyl)methyl]piperazin-1-yl}-5-methyl-6-oxo-5,6-dihydro-1,5-naphthyridine-2,7-dicarbonitrile] | – | 0.45 µM | 4 µM | 1.8 µM | –
Cn1c(=O)c([N+](=O)[O-])c(N2CCN(CC(O)c3ccc(F)cc3)CC2)c2nc(C#N)ccc21 (centres unmarked) [Example 36, 8-{4-[2-(4-fluorophenyl)-2-hydroxyethyl]piperazin-1-yl}-5-methyl-7-nitro-6-oxo-5,6-dihydro-1,5-naphthyridine-2-carbonitrile] | 18 µM | 1.4 µM | 68 µM | – | –
CCCCn1c(=O)c([N+](=O)[O-])c(N2CCN(C(c3ccccc3)c3ccccc3)CC2)c2ncccc21 [Example 177, 4-(4-benzhydrylpiperazin-1-yl)-1-butyl-3-nitro-1,5-naphthyridin-2(1H)-one] | 9.7 µM | – | – | – | –
Cn1c(=O)c(C#N)c(N2CCN(Cc3cccc4ccccc34)CC2)c2nc(C#N)ccc21 [Example 404, 5-methyl-8-{4-[(naphthalen-1-yl)methyl]piperazin-1-yl}-6-oxo-5,6-dihydro-1,5-naphthyridine-2,7-dicarbonitrile] | 3.9 µM | – | 63 µM | – | –
Cn1c(=O)c([N+](=O)[O-])c(N2CCN(Cc3cccc4ccccc34)CC2)c2nc(C#N)ccc21 [Example 415, 5-methyl-8-{4-[(naphthalen-1-yl)methyl]piperazin-1-yl}-7-nitro-6-oxo-5,6-dihydro-1,5-naphthyridine-2-carbonitrile] | 0.66 µM | – | – | – | –
